# Source: patent US20150368616A1, “METHODS FOR INDUCTION OF CELL FATES FROM PLURIPOTENT CELLS” (THE CLEVELAND CLINIC FOUNDATION, priority 2013, published 2015)
# Residues, ends and D or L forms follow the SMILES beside them. *: point of attachment. Cbz = O=C(OCc1ccccc1)*
# B1: Ngn3: pro-endocrine bHLH factor, 214 amino acids (protein, UniProt Q9Y4Z2 1-214, looked up)
# chain: MTPQPSGAPTVQVTRETERSFPRASEDEVTCPTSAPPSPTRTRGNCAEAEEGGCRGAPRKLRARRGGRSRPKSELALSKQRRSRRKKANDRERNRMHNLNSALDALRGVLPTFPDDAKLTKIETLRFAHNYIWALTQTLRIADHSLYALEPPAPHCGELGSPGGSPGDWGSLYSPVSQAGSLSPAASLEERPGLLGATFSACLSPGSLAFSDFL
# modifications: full-length
# notes: pro-endocrine bHLH factor, 214 amino acids
# Key:
# [1] = tested on: E12.5 Ngn3 Delayed ON pancreas; experiment: Ngn3 Delayed ON pancreas (E12.5) explant culture 4 days with and without DAPT, immunofluorescence; type: cell-based, mouse; conditions: four days ex-vivo
# Description: D-K. Ngn3 Delayed ON pancreas (E12.5, doxycycline was provided at E7.5, E9.5 as in FIG. 2A) was isolated and subjected to 4 days of explant culture with and without DAPT as described in A,B. Immunofluorescence analyses of explant pancreas using select pancreatic markers, after 4 days in culture. D′: insert image showing the expression of glucagon.
# Given that Dll1 and Hes1 were >2-fold increased in the E12.5 Ngn3 Delayed ON pancreas, we next asked to what degree Notch processing was also required for the enhanced Ngn3-mediated ductal cell formation in that model. Similar to above, microdissected E12.5 Ngn3 Delayed ON pancreas was cultured for four days ex-vivo with and without DAPT (FIG. 36D-K). In contrast to WT explants, Ngn3 Delayed ON pancreas developed in a quite similar manner as observed in-vivo; in addition to widespread ductal formation, glucagon-producing clusters were observed, and extremely few acinar cells were found (FIG. 36D, F, H). Similar results were obtained using staining for Hnf1β (data not shown). […] The Ngn3-mediated ductal cell formation was abrogated by DAPT treatment ([…]). […] We conclude that Notch signaling is required for both normal, as well as Ngn3-mediated, pancreatic ductal cell development, and that blocking this pathway promotes acinar and endocrine fates at the expense of ductal cells. Of note, at high levels of DAPT treatment, γ-secretase inhibition impacts endocrine subtype determination as well, and if a concomitant increase in Ngn3 protein is provided, the organ regains capacity for significant insulin-cell differentiation.
# [2] = tested on: mouse WT pancreatic explants (E12.5); experiment: Mouse WT pancreatic explants (E12.5) cultured 4 days with DAPT; staining and qRT-PCR; type: cell-based; conditions: for ductal cell development: 4 days
# Protocol: […] Sections were stained against Mucin1, carboxypeptidase1 (CPA) and glucagon (Glu). C. qRT-PCR analysis of explants performed as in A, B. Pancreatic marker genes were assessed and fold-changes to WT explants treated with DMSO were calculated by DDct method, using GAPDH mRNA as internal standard.
# Given that pancreatic ductal cells form in Ngn3 null mice, and because ductal genes have not been identified as direct Ngn3 targets, we set forth to determine if the cell-extrinsic mechanism involving Notch indeed was causal for the Ngn3 Delayed ON phenotype. We first tested if pancreatic ductal cell differentiation was dependent on Notch. We cultured WT pancreatic explants in the presence of DAPT (FIG. 35A, B, C). These experiments were based on E12.5 pancreas, as at that age, the majority of tip/trunk patterning has occurred, and cells are actively undergoing terminal fate decisions. These cultures developed significant numbers of Muc1+ ductal cells during culture in absence of DAPT (FIG. 35A), with a density exceeding that found in-vivo. Acinar cell development (CPA1+) proceeded in WT (FIG. 35A), albeit at a much reduced level compared to normal development. […] Given that Notch processing inhibition strongly affected cellular differentiation, we investigated this further by performing qRT-PCR on similar-type explants (FIG. 35C).
# [3] = tested on: Ngn3 protein; experiment: Ngn3 protein stability and half-life in HepG2 cells, cycloheximide time course, Western blot; type: cell-based
# Description: I. Protein stability and half-life assessment of Ngn3 in HepG2 cells. HepG2 cells were transfected with pTRE2-Ngn3 and pCMV-rtTA, treated with Doxycycline for 24 hr, and on the subsequent day pre-exposed to the proteasomal inhibitor MG132 for 5 hr. At time t=0, protein synthesis was inhibited by cycloheximide (CHX). Western blot using anti-Ngn3 antibodies are shown; b-actin served as a control, and remains stable. MG132 treatment leads to Ngn3 protein accumulation at t=0, and strongly stabilizes the protein, which rapidly decays in non-treated cells. J. Experiment conducted similarly as in I, but CMV-driven versions of Notch1 and Notch2 intracellular domains (N1ICD, N2ICD respectively) (left), or dominant-negative mastermind-like1 (DN-MAML1) were co-transfected with pTRE2-Ngn3. The left-most blot is overexposed to reveal the lower level of accumulated Ngn3 protein in presence of N1ICD, N2ICD, and the loss of Ngn3 upon CHX treatment. The analysis was done 1 hr post CHX treatment. […] K. Mouse pancreatic E14.5 explants were subjected to short-term treatment of CHX (1 hr) and MG132 (5 hr pre, and post-culture) as indicated. Total protein was isolated and subjected to anti-Ngn3 Western blotting. Levels of Ngn3 increase in presence of MG132, and decrease in response to CHX. Ngn3 protein levels increase correspondingly in presence of DAPT, a condition where the protein remains stable (CHX+DAPT lane). L. Stability measurements of Ngn3 in the presence of various cellular regulatory proteins. The experiment was conducted as in I and J. Decay scans (right) provide a measure of the decay rate of Ngn3. In all cases, the t=0 Ngn3 levels prior to CHX treatment is paralleled by the relative half-life of the protein. Destabilizing conditions include N1ICD, N2ICD, and Hes1. Stabilizing conditions include DN-MAML1 and DAPT-treatment. […] Hes1 is able to destabilize Ngn3 in the presence of DN-MAML1.
# While Hes1 is known to directly repress Ngn3 expression, this would be an insufficient explanation for the observed results in which Ngn3 was driven by a Pdx1-tTA;tetO governed system. […] As destabilization of other bHLH factors, including NGN, and hASH1 has been observed, which has also implicated Notch, we then tested if a similar mechanism might operate in pancreas. As a means to mechanistically address this question, we first determined if Ngn3 protein half-life was regulated by proteasomal activity. Using three different heterologous cell lines (HepG2, Hek293, and CHO) conditionally expressing Ngn3, we observed a rapid turnover of Ngn3 protein after cycloheximide (CHX) addition; conditions where the control protein, beta-Actin, remained stable (FIG. 34I and data not shown). […]
# [4] = tested on: endogenous Ngn3; experiment: Mouse pancreatic E14.5 explants treated with CHX, MG132, DAPT; anti-Ngn3 Western blotting; type: cell-based; conditions: E14.5 mouse pancreatic explants, MG132 5 hr
# Description: I. Protein stability and half-life assessment of Ngn3 in HepG2 cells. HepG2 cells were transfected with pTRE2-Ngn3 and pCMV-rtTA, treated with Doxycycline for 24 hr, and on the subsequent day pre-exposed to the proteasomal inhibitor MG132 for 5 hr. At time t=0, protein synthesis was inhibited by cycloheximide (CHX). Western blot using anti-Ngn3 antibodies are shown; b-actin served as a control, and remains stable. MG132 treatment leads to Ngn3 protein accumulation at t=0, and strongly stabilizes the protein, which rapidly decays in non-treated cells. J. Experiment conducted similarly as in I, but CMV-driven versions of Notch1 and Notch2 intracellular domains (N1ICD, N2ICD respectively) (left), or dominant-negative mastermind-like1 (DN-MAML1) were co-transfected with pTRE2-Ngn3. The left-most blot is overexposed to reveal the lower level of accumulated Ngn3 protein in presence of N1ICD, N2ICD, and the loss of Ngn3 upon CHX treatment. The analysis was done 1 hr post CHX treatment. […]
# While Hes1 is known to directly repress Ngn3 expression, this would be an insufficient explanation for the observed results in which Ngn3 was driven by a Pdx1-tTA;tetO governed system. […] As a means to mechanistically address this question, we first determined if Ngn3 protein half-life was regulated by proteasomal activity. […]
# [5] = tested on: forward differentiating hES culture; experiment: Two stage protocol: Pan-CM 8 days then second stage medium with MG132, DAPT, forskolin, sodium propionate; transcript analysis; type: cell-based, human; conditions: 8 days Pan-CM then second stage medium
# Protocol: As a means to optimize the differentiation of insulin producing cells a two stage protocol was used in which pluripotent cultures were incubated in the presence of Pan-CM for 8 days as a means of generating pancreatic precursors cellular population. The medium these cultures were incubated in were subsequently changed to a medium designed to enhance differentiation of a pancreatic precursor towards a beta-cell terminal fate. All second stage experiments were performed in a medium composed of DMEM/F12 containing 12 mM Glucose supplemented with 1% B27, 1% Pyruvate, 1 uM Alk5 Inh II, 500 ng/ml Noggin and 0.5 uM (1,25 OH2)-Vit D3.
# Among the compounds assayed for the ability to increase insulin production in a forward differentiating culture was the proteosomal inhibitor MG132 which we used in the previous example to stabilize Ngn3 protein. We also included the gamma secretase inhibitor DAPT, which was shown in the previous example to greatly increase beta-cell formation in the developing embryonic pancreatic explant study. We also included the short fatty acid salt sodium propionate, which acts as an agonist of short-chain fatty acid receptors. We also included the adenylyl cyclase activator forskolin. We also included the nuclear hormone receptor agonist 1,25 (OH)2)-Vit D3, which binds to, and activates the VDR protein. We also used intermediate concentrations of glucose, shown by others to increase formation of insulin producing cells from pluripotent derivatives. These compounds were used individually or in combination (as outlined in FIG. 37 panel A) to increase insulin-producing endocrine cell formation in a short term Pan-CM treated forward differentiating hES culture system.
# [6] = tested on: Forward differentiating hES cultures; experiment: Pan-CM two weeks then maturation medium with daily MG132 pulse, transcript analysis; type: cell-based, human
# Protocol: To successfully differentiate an insulin producing cell a two stage approach was developed. Schematically represented in panel A, pluripotent cultures were treated with Pan-CM for two weeks followed by a switch to a maturation medium (abbreviated MM within panel B) composed of DMEM/F12 with 12 mM glucose supplemented with 5 uM DAPT, 0.5 uM Vit D3, 1% B27, 1 uM Alk 5 Inhibitor and 1 mM Sodium Propionate. In addition cultures were treated with the proteasome inhibitor MG132 at 10 uM for a 4 hour pulse daily for the length of the experiment. We have previously shown that MG132 mediated inhibition of protein degradation promotes sustained Ngn3 signaling resulting in increased endocrine differentiation. […] Substantial increases in several of the endocrine specific genes are observed.
# Forward differentiating hES cultures were incubated for two weeks in the presence of Pan-CM at which time culture conditions were changed to a defined maturation medium in addition to being treated daily with MG132. Control cultures remained within Pan-CM for the entire duration of the experiment. […] Transcript levels of Slc30A8, a gene associated with the transport of zinc during the processing of insulin, were increased ˜200 fold when forward differentiating cultures were exposed to MG132. […] It is important to note that while the absolute Glucagon transcript level fold increase was greater than that of insulin, when comparing the effects of forward differentiating cultures treated with Mg132 as to those which were solely treated with Pan-CM there was an ˜5 fold greater increase in relative Glucagon transcript levels as compared to an ˜24 fold greater increase in Insulin transcript levels. […] A similar low increase was also noted for the intestinal specific transcripts Cdx2 and Gucy2c genes, with only an ˜15 and ˜30 fold increase over hES transcript levels.
# Also it is important to note that while all of the transcripts assayed throughout this series of experiments were increased in the cultures treated with MG132 the increase in pancreas specific transcripts was always far greater than the increases observed in non-pancreas specific transcripts (i.e., transcripts representative of the liver and intestines).
# [7] = two weeks Pan-CM then maturation medium, MG132 daily
molecule,measurement,setting,value
"C[C@H](NC(=O)Cc1cc(F)cc(F)c1)C(=O)N[C@H](C(=O)OC(C)(C)C)c1ccccc1 [DAPT, N—[N-(3,5-Diflurophenacetyl-L-alanyl)]-S-phenylglycine t-Butyl Ester]",Ngn3-mediated ductal cell formation,[1],abrogated
same,Pdx1+/Ins+ endocrine cells,[1],numerous
same,acinar density (CPA1+ cells),[1],much increased
same,glucagon-expressing cells,[1],correspondingly reduced
same,ductal cell development,[2]; 100 μM DAPT,fully abolished
same,Gcg expression,"[2]; 100 μM DAPT, qRT-PCR",reduced
same,"Ins1, Ins2 expression","[2]; 100 μM DAPT, qRT-PCR",further enhanced
same,ductal cell development,[2]; 25-50 μM DAPT,significantly reduced
same,"Ngn3, NeuroD1, Nkx6.1 expression",[2]; qRT-PCR,dose-dependent increases
same,Sox9 expression,[2]; qRT-PCR,Sox9 expression was reduced
same,"acinar gene expression (Cpa1, Cpa2, Ptf1a)",[2]; qRT-PCR,strongly promoted
same,total Ngn3 protein levels and stability,"[3]; HepG2 cells, DAPT at 50 μM",increase in total Ngn3 protein levels
"CC(C)C[C@@H](C=O)NC(=O)[C@H](CC(C)C)NC(=O)[C@H](CC(C)C)NC(=O)OCc1ccccc1 [MG132, benzyl (S)-4-methyl-1-((S)-4-methyl-1-((S)-4-methyl-1-oxopentan-2-ylamino)-1-oxopentan-2-ylamino)-1-oxopentan-2-ylcarbamate] (Cbz-Leu-Leu-Leu-aldehyde)",loss of endogenous Ngn3 following exposure to CHX,[4],abrogated
same,Glucagon transcript levels,[5],remaining approximately the same as controls
same,Hnf6 transcript increase,[5],~90 fold
same,Insulin transcript levels increase over controls,[5],~80 fold
same,Nkx6.1 transcript increase,[5],~12.5 fold
same,Pdx1 transcript increase,[5],~40 fold
same,AFP transcript increase,[6],~85 fold
same,Albumin transcript increase,[6],~50 fold
same,Cdx2 increase over hES transcript levels,[6],~15 fold
same,Glucagon transcript increase compared to cultures solely treated with Pan-CM,[6],~5 fold
same,Gucy2c increase over hES transcript levels,[6],~30 fold
same,Insulin transcript increase compared to cultures solely treated with Pan-CM,[6],~24 fold
same,effect of long incubations on the culture,[6]; forward differentiating culture,overall detrimental effect on the culture
same,Glucagon absolute relative level over hES levels,[6]; [7],~2000 fold
same,Insulin absolute relative level over hES levels,[6]; [7],~600 fold
same,Mafa relative increase over control conditions,[6]; [7],~200 fold
same,Pax4 relative increase over control conditions,[6]; [7],~300 fold
same,Slc30A8 transcript levels increase,[6]; [7],~200 fold
same,half-life of Ngn3 (T1/2),"[3]; HepG2 cells exposed to MG132, CHX time course",> 3 h
B1,half-life of Ngn3 (T1/2),[3]; HepG2 cells co-expressing N1ICD or N2ICD,< 15 ′
same,half-life of Ngn3 (T1/2),"[3]; HepG2 cells, CHX time course, non-treated",~30 ′
